{"source": "patent US11918000B2", "about": "“Methods for inducing resistance to virus in a plant, priming a plant to resist viruses, decreasing virus accumulation, or increasing PR1 expression in a plant” (Academia Sinica, priority 2019, dated 2024)", "key": {"[1]": {"tested_on": "Tobacco mosaic virus (TMV)", "assay": "Infection rate of TMV on Nicotiana benthamiana, inoculum from lyophilized infected leaves, RT-PCR detection", "type": "in vivo", "settings": "N. benthamiana", "description": "(§1) Plants were grown in a growth chamber with 10,000 lux fluorescent light and a 16-h light/8-h dark cycle. N. glutinosa (6-7 weeks old, 8-10 leaf stage), N. benthamiana (3-4 weeks old, 5-6 leaf stage) and Brassica juncea (14 days old, 2-3 true-leaf stage) were used for treatment and/or inoculation. For virus inoculation, plants were dusted with 600-grit silicon carbide powder (Sigma-Aldrich, St. Louis, Mo., USA) and mechanically inoculated. Virus inoculum was prepared with 100 ml of 0.1 M potassium phosphate (KP) buffer (61.5% of 0.1 M K2HPO4 and 38.5% 0.1 M KH2PO4, pH 7.0) mixed with 0.1 g of lyophilized leaves of plants infected with Tobacco mosaic virus (TMV) (FIGS. 1, 4A-E, 8 and 9; FIG. 10, 11, 12, 14 and 15; Table 1), or TMV tagged with green fluorescence protein (TMV-GFP) (FIG. 5) (Rabindran, S., and Dawson, W.O. 2001. Assessment of recombinants that arise from the use of a TMV-based transient expression vector. Virology 284:182-189). Different concentrations of TMV purified particle inoculum was diluted with 0.1 M potassium phosphate (KP) buffer (61.5% of 0.1 M K2HPO4 and 38.5% 0.1 M KH2PO4, pH 7.0) (FIGS. 2, 3, and 4F; Table 2). Turnip mosaic virus (TuMV) inoculum was prepared with 0.1 g of fresh leaves from plants infected with TuMV ground with 10 ml of 0.1 M sodium phosphate buffer (0.1 M NaH2PO4, 0.1 M Na2HPO4 and 0.5% Na2SO3, pH 7.4). The severity of TMV or TuMV symptom of infected plants were scored based on external phenotype (FIG. 15). Transmission electron microscope (Philips Electronic Instruments, Mahwah, N.J.) was used to examine TMV particles of different inoculums.\n(§2) Whole plants were sprayed with 0.4 ml H2O, VB, culture filtrate derived from microorganism or 5 mM salicylic acid (SA, Sigma-Aldrich) for total of three times with a 24-h interval between each spray. Twenty-four hours after the final treatment, plants were rubbed with the virus inoculum.\nBesides using N. glutinosa for our initial screening, we also used N. benthamiana, a host that is highly susceptible to TMV, for resistance assay. N. benthamiana was pretreated with H2O, SA, VB, F2- or F8-culture filtrate as for pretreatment of N. glutinosa. All treated plants were inoculated with TMV inoculum made from lyophilized leaves of TMV infected N. benthamiana. […] With RT-PCR to detect TMV on all treated plants, the infection rate was much reduced with F8-culture filtrate than H2O, SA, VB or F2-culture filtrate pretreatment (Table 1). In our repeat experiments, the infection rate of TMV-inoculated plants with F8-culture filtrate pretreatment even decreased to 0% (Table 1). […] We prepared at least 7 different batches of F8-culture filtrate, and the ability to induce resistance against TMV was consistent between different batches (Table 1)."}, "[2]": {"tested_on": "TMV tagged with green fluorescence protein (TMV-GFP)", "assay": "TMV-GFP infection of Nicotiana benthamiana (fluorescent infection foci)", "type": "in vivo", "settings": "N. benthamiana", "description": "as §1, §2\nPhotographs of TMV-GFP fluorescent infection foci in N. benthamiana leaves were taken under UV light at 5 and 7 days post-inoculation (dpi), and the level of fluorescence as well as the areas of fluorescent infection sites in each leaf were measured by using ImageJ v1.47. All imaging was conducted under identical illumination and exposure conditions to allow for comparisons. Mean values of areas of all infection foci per treatment were calculated.\nTo analyze which virus infection steps are affected in F8-culture filtrate-treated plants, we used TMV tagged with green fluorescence protein (GFP) to inoculate N. benthamiana and monitor the infection of TMV. […] To compare TMV-GFP accumulation in each foci, we used a puncher to collect GFP foci under UV light and used qRT-PCR to quantify the TMV-GFP expression. […]"}, "[3]": {"tested_on": "Tobacco mosaic virus (TMV)", "assay": "Symptoms / disease index induced by TMV in Nicotiana benthamiana", "type": "in vivo", "settings": "N. benthamiana; systemic protection test; 7 dpi", "description": "FIG. 15A and FIG. 15B show disease index of N. benthamiana inoculated with TMV and Brassica juncea inoculated with TuMV. (FIG. 15A) N. benthamiana were inoculated with TMV. The disease index was classified into 4 levels according to the degree of yellowing, stunting and wilting at 7 dpi. (FIG. 15B) Brassica juncea were inoculated with TuMV. The disease index was classified into 3 levels according to the degree of leaf mosaic and stunting at 13 dpi.\nPlants were grown in a growth chamber with 10,000 lux fluorescent light and a 16-h light/8-h dark cycle. N. glutinosa (6-7 weeks old, 8-10 leaf stage), N. benthamiana (3-4 weeks old, 5-6 leaf stage) and Brassica juncea (14 days old, 2-3 true-leaf stage) were used for treatment and/or inoculation. […] Virus inoculum was prepared with 100 ml of 0.1 M potassium phosphate (KP) buffer (61.5% of 0.1 M K2HPO4 and 38.5% 0.1 M KH2PO4, pH 7.0) mixed with 0.1 g of lyophilized leaves of plants infected with Tobacco mosaic virus (TMV) (FIGS. 1, 4A-E, 8 and 9; FIG. 10, 11, 12, 14 and 15; Table 1), or TMV tagged with green fluorescence protein (TMV-GFP) (FIG. 5) (Rabindran, S., and Dawson, W.O. 2001. Assessment of recombinants that arise from the use of a TMV-based transient expression vector. Virology 284:182-189). […] The severity of TMV or TuMV symptom of infected plants were scored based on external phenotype (FIG. 15). […]"}, "[4]": {"tested_on": "Tobacco mosaic virus (TMV) particle", "assay": "Infection rate of purified TMV particle on Nicotiana benthamiana", "type": "in vivo", "settings": "Table 2, N. benthamiana, 7 dpi, RT-PCR, SA 5 mM", "description": "as §1\nLeaves of TMV-infected N. benthamiana were harvested approximately 5 days after inoculation. The initial purification of TMV virus particles followed the protocol as described by Gooding and Hebert (1967) with modifications. Briefly, polyethylene glycol with molecular weight 8000 (PEG 8000) (Sigma-Aldrich) was used instead of PEG 6000. In addition, the semi-purified preparation was submitted to linear density sucrose gradient (0-18%), and ultracentrifuged at 228,000×g for 1.5 h. The light scattering region was collected and diluted with 100 ml of suspension buffer (35 mM Na2HPO4, 15 mM NaH2PO4 and 0.05% 2-mercaptoethanol, pH7.2). NaCl (0.4 g) and PEG 8000 (4 g) were added and stirred for at least 1 h on ice, then centrifuged at 9000×g for 15 min at 4° C. The pellets were re-suspended in 1 ml of suspension buffer. The concentration of the purified TMV suspension was determined (A260 nm=[…] for 1 mg/mL of TMV) with a Nanodrop (ND-1000, Thermo Fisher Scientific, MA, USA).\nas §2\nIn addition to using inoculum made from lyophilized leaves of TMV infected N. benthamiana, we also used different concentrations (1 μg/ml, 10 μg/ml and 50 μg/ml) of purified TMV particles as inoculum to inoculate N. glutinosa and N. benthamiana pretreated with H2O, SA, VB, or F8-culture filtrate (FIG. 2, FIG. 3). […] The infection rate of TMV on N. benthamiana was also detected by use of qRT-PCR (Table 2)."}, "PR-1": {"tested_on": "PR-1", "assay": "Relative expression of PR-1 by qRT-PCR", "type": "in vivo, Nicotiana benthamiana", "settings": "N. benthamiana, no TMV, 24 hpt", "excerpt": "Total RNA was isolated by use of Trizol (Invitrogen, Bethesda, Md.) according to the manufacturer's instruction. Residual DNA was removed by using the TURBO DNA-free kit (Ambion, Austin Tex., USA). cDNA was synthesized by using the PrimeScript RT-PCR Kit (Takara Bio, Shiga, Japan). Quantitative RT-PCR (qRT-PCR) involved the SYBR protocol (Life Technologies) and the ABI 7100 real-time PCR system (Applied Biosystems, Carlsbad, Calif.). For quantitative analysis, actin was used as an input control. Relative fold change in mRNA expression was determined by calculating 2^−ΔΔCt. The sequences of primers used are in Table S1.\nWe collected both the local and upper un-treated (systemic) leaves at 24 h post-treatment (hpt) to analyze the expression of the PR-1 gene (a SAR marker gene) (Zheng et al., 2015). PR-1 gene expression was detected in SA- and VB- but not F8-culture filtrate-treated local leaves (FIG. 4C). […] In addition, we collected leaves from plants with whole plants pretreated with H2O, SA, VB or F8-culture filtrate. Consistently, PR-1 gene induction was detected in leaves of whole plants pretreated with SA and VB but not whole plants pretreated with F8-culture filtrate at 24 hpt (FIG. 4E).\nTo analyze how F8-polysaccharide induces plant viral resistance, we measured the expression of SA-, JA- and ET-responsive immune marker genes in H2O- and F8-polysaccharide-treated plants (Cortes-Barco et al., 2010; Milling et al., 2011; Zhu et al., 2014). We first confirmed the induction of marker genes induced by SA (PR-1 and PR-2), JA (PDF-1.2 and PR-4), and ET (Osm and EREBP) in N. benthamiana (FIG. 14A). Plants were pretreated with H2O and F8-polysacccharide for total of three times with a 24-h interval between each spray as described previously, then leaves were collected from one set of individual plants at 0, 12, 24, 36, 48, 72, and 96 hpt. […] We detected the accumulation of TMV and the expression of SA-, JA- and ET-responsive immune marker genes (FIG. 9A-D, FIGS. S5C and D). […]"}, "[5]": {"settings": "Table 1, lyophilized leaf inoculum, 7 dpi, RT-PCR, SA 5 mM"}, "[6]": {"settings": "Table S3, fractions derived from F8-culture filtrate, 7 dpi, RT-PCR"}}, "data": [{"compound": "O=C(O)c1ccccc1O", "note": "[SA, salicylic acid]", "values": [{"measurement": "infection rate of TMV-inoculated plants", "setting": "[1]; pretreatment before TMV inoculation", "value": 100, "unit": "%"}, {"measurement": "infection rate of TMV: number of plants detected with TMV to total TMV inoculated plants, Exp. 2", "setting": "[1]; [5]", "value": "5/5"}, {"measurement": "infection rate of TMV: number of plants detected with TMV to total TMV inoculated plants, Exp. 3", "setting": "[1]; [5]", "value": "4/5"}, {"measurement": "infection rate of TMV: number of plants detected with TMV to total TMV inoculated plants, Exp. 4", "setting": "[1]; [5]", "value": "5/5"}, {"measurement": "infection rate of TMV: number of plants detected with TMV to total TMV inoculated plants, Exp. 5", "setting": "[1]; [5]", "value": "5/5"}, {"measurement": "infection rate of TMV: number of plants detected with TMV to total TMV inoculated plants, Exp. 6", "setting": "[1]; [5]", "value": "5/5"}, {"measurement": "infection rate of TMV: number of plants detected with TMV to total TMV inoculated plants, Exp. 7", "setting": "[1]; [5]", "value": "5/5"}, {"measurement": "infection rate of TMV: number of plants detected with TMV to total TMV inoculated plants, Exp. 8", "setting": "[1]; [5]", "value": "5/5"}, {"measurement": "infection rate of TMV: number of plants detected with TMV to total TMV inoculated plants, Exp. 1", "setting": "[1]; Table 1, three sprays at 24-h intervals, inoculum from lyophilized TMV-inoculated leaves, 7 dpi, RT-PCR, SA 5 mM", "value": "5/5"}, {"measurement": "infection rate of TMV: number of plants detected with TMV to total TMV inoculated plants, Total", "setting": "[1]; Table 1, sum of Exp. 1-8, 7 dpi, RT-PCR", "value": "39/40"}, {"measurement": "infection rate of TMV: number of plants detected with TMV to total TMV inoculated plants, Exp. 1", "setting": "[1]; [6]", "value": "5/5"}, {"measurement": "infection rate of TMV: number of plants detected with TMV to total TMV inoculated plants, Exp. 2", "setting": "[1]; [6]", "value": "5/5"}, {"measurement": "infection rate of TMV: number of plants detected with TMV to total TMV inoculated plants, Exp. 3", "setting": "[1]; [6]", "value": "5/5"}, {"measurement": "infection rate of TMV: number of plants detected with TMV to total TMV inoculated plants, Total", "setting": "[1]; Table S3, sum of Exp. 1-3, 7 dpi, RT-PCR", "value": "15/15"}, {"measurement": "number of initial TMV-GFP infection foci", "setting": "[2]; 5 dpi", "value": "reduced"}, {"measurement": "mean TMV accumulation per foci", "setting": "[2]; qRT-PCR of punched GFP foci", "value": "similar"}, {"measurement": "infection rate of TMV-GFP: number of plants exhibiting green fluorescence under UV illumination to total TMV-GFP inoculated plants, Exp. 1", "setting": "[2]; Table S2, 7 dpi, SA 5 mM", "value": "5/5"}, {"measurement": "infection rate of TMV-GFP: number of plants exhibiting green fluorescence under UV illumination to total TMV-GFP inoculated plants, Exp. 2", "setting": "[2]; Table S2, 7 dpi, SA 5 mM", "value": "4/6"}, {"measurement": "viral symptoms with pretreatment of only local (lower) leaves and TMV inoculation of upper untreated leaves", "setting": "[3]", "value": "severe viral symptoms"}, {"measurement": "infection rate of TMV particle: number of plants detected with TMV to total inoculated plants, Exp. 1, 1 μg/ml", "setting": "[4]; TMV particle 1 μg/ml", "value": "6/6"}, {"measurement": "infection rate of TMV particle: number of plants detected with TMV to total inoculated plants, Exp. 2, 1 μg/ml", "setting": "[4]; TMV particle 1 μg/ml", "value": "6/6"}, {"measurement": "infection rate of TMV particle: number of plants detected with TMV to total inoculated plants, Exp. 3, 1 μg/ml", "setting": "[4]; TMV particle 1 μg/ml", "value": "15/15"}, {"measurement": "infection rate of TMV particle: number of plants detected with TMV to total inoculated plants, Exp. 1, 10 μg/ml", "setting": "[4]; TMV particle 10 μg/ml", "value": "6/6"}, {"measurement": "infection rate of TMV particle: number of plants detected with TMV to total inoculated plants, Exp. 1, 50 μg/ml", "setting": "[4]; TMV particle 50 μg/ml", "value": "6/6"}, {"measurement": "PR-1 gene expression in treated local leaves", "setting": "PR-1; local leaves pretreated", "value": "detected"}, {"measurement": "PR-1 gene expression on systemic (upper untreated) leaves", "setting": "PR-1; local leaves pretreated", "value": "increased PR-1 gene expression"}, {"measurement": "PR-1 gene induction in leaves of whole plants pretreated", "setting": "PR-1; whole plant pretreated", "value": "detected"}]}]}
